“Also recorded” adds a separate entry of the source. Oligonucleotides are written 5' to 3', each unit as a sugar letter and its base; * is a phosphorothioate linkage, no mark a phosphodiester; rarer units and linkages stand in square brackets, end groups in braces. Plain capitals give the bases only. d = 2'-deoxy (DNA)
How the values were obtained:
[1] = test system: de novo HIV DNA synthesis; assay: Southern blot analysis of de novo HIV DNA synthesis in ATH8 cells; assay type: cell-based
Text: Target cells (1×10^7 ATH8 cells) were pretreated with or without S-dC28 at various concentrations for sixteen hours, then treated with Polynrene, exposed to HIV (500 virus particles per cell), resuspended, and cultured in the presence or absence of S-dC28. On days 4 and 7 following the exposure to the virus, high molecular weight DNA was extracted, digested with Asp718 (a Kpn I isoschizomer from Boehringer-Mannheim, Indianapolis, Ind.), and subjected to Southern blot analysis hybridized with a labelled insert of molecular clone of the env region of HTLV-III (BH10) containing a 1.3 Kb Bgl II fragment.
On days 4 and 7 following the exposure to the virus, a substantial amount of viral DNA was detected by Southern blot analysis without antiviral agents.
On day 4, shown in lanes A-E, and day 7, shown in lanes F-J, following exposure to the virus, high molecular weight DNA was extracted. Lanes A and F contain DNA from ATH8 cells that were exposed to the virus and not protected by S-dC28. Lanes B and G, C and H, D and I, contain DNA from ATH8 cells pretreated and cultured with 1 micromole, 5 micromoles, and 7 micromoles S-dC28, respectively. Lanes E and J contain DNA from ATH8 cells treated with 50 micromoles 2',3'-dideoxyadenonsine, and lane K contains DNA from ATH8 cells that was not exposed to the virus.

[2] = test system: HTLV-IIIB virus (HIV) in ATH8 cells; assay: HIV cytopathic effect inhibition in ATH8 cells; assay type: cell-based; details: for anti-HIV activity / protection against cytopathic effect: ATH8 cells
Method: Because it is possible that inter-assay variation may create an inappropriate comparison of antiviral activity among agents, experiments were performed simultaneously to make more precise comparisons.
After a number of days in culture, generally 7-10 days, either substantial cell death due to HIV infection (HIV cytopathic effect) or the protective effect of oligos against the cytopathicity of HIV was observed.

[3] = test system: gamma-interferon; assay: Induction of gamma-interferon in culture supernatant; assay type: cell-based
Text: Another mechanism which should be considered is induction of interferon production such as that proposed for phophorothioate analogs of poly-r(I-C). […] Also, since there are no data to support the concept that phosphorothioate internucleotide linkages have a thiol character, and can thus form disulfides, the mechanism of action would likely be different from that proposed for antiviral polynucleotides having thiolated bases such as 5-mercapto-cytosine or -uracil.

[4] = test system: p24 gag protein of HIV; assay: HIV gag protein expression in chronically HIV-infected H9 cells (indirect immunofluorescence); assay type: cell-based; details: up to 25 micromoles, 120 hours
Method: The percentage of cells expressing p24 gag protein of HIV was determined by indirect immunofluorescence microscopy by using anti-HIV p24 murine monoclonal antibody.
Generally, it has been assumed that anti-sense sequences inhibit the expression of various genes by translation arrest, i.e. that they bind to mRNA and block its translation. In order to test this possibility, gag protein synthesis was analyzed in chronically HIV-infected and -producing H9 cells by indirect immunofluorescent assay under a microscope. […] Alternatively, the level of any translation arrest could have been below the threshold of detection by indirect immunofluorescent assay under a microscope. […] Therefore, one mechanism for the antiviral effect could depend on blocking viral replication perhaps prior to, or at the stage of, pro-viral DNA synthesis.

[5] = Solubility; assay type: physicochemical; details: acetate salts
Text: Oligodeoxynucleotides with blocks of phosphorothioates at the 3' or 5' ends were synthesized by automatically changing the oxidation cycle at the required point. […] Introduction of a small amount of ammonia vapor, not aqueous ammonia, by a Pasteur pipette solubilized all the solids. The yield determined from absorbance at lambda max was about 30%.

[6] = test system: S1 nuclease; assay: Nuclease susceptibility, S1 nuclease; assay type: in vitro ADME
Text: (§1) Several oligodeoxynucleotides were studied with regard to DNase sensitivity, cf. Table 5. These include cytidine homopolymers, ODN-4 (an anti-message 38-mer complementary to the 3' region of the art/trs region of HIV BH10 clone), and myc-1 (a 15-mer complementary to the initiation codon region of the C-myc oncogene). The DNases employed were predominantly endonuclease S1, the exo- and endonuclease P1, and snake venom (SV) phosphodiesterase. The concentration of S1 nuclease was ten-fold higher ([…]) for reactions of olifo-dC, since both the normal and PS analog were degraded extremely slowly be this enzyme. S1 and P1 nuclease digestion proceeded at 2-45 times more slowly for the S-ODNs than for the normal oligomers, with the […] being somewhat more readily digested than the 28-mer.

[7] = test system: T4, HLA-DR, T8, T3, or Tac antigen on ATH8 cells; assay: Surface antigens of ATH8 cells by fluorescent-activated cytofluorometry; assay type: cell-based; details: i micromole, sixteen hours
Method: (§2) The possibility that the S-ODN analogs may interfere with HIV binding to target cells was tested.

[8] = test system: T4 molecule in T4 cells (H9 cells); assay: HIV binding to T4 molecule in H9 cells (radiolabelled virus)
Method: as §2

[9] = test system: P1 nuclease; assay: Nuclease susceptibility, P1 nuclease; assay type: in vitro ADME
Text: as §1

[10] = Stability in in vitro test media followed by 31P NMR; assay type: in vitro ADME
Text: The phosphorothioate oligodeoxynucleotides of the present invention have suitable chemical characteristics, namely, the ability to hybridize with complementary DNA/mRNA under physiological conditions, and better solubility properties relative to methylphosphonates. Moreover, the thioesters are as soluble in biological media as the parent compounds.
Thus, it is believed that it is mainly the relative resistance of the phosphorothioate analogs to nucleases that preserves them relative to n-ODNs, and allows them to reach and remain at their target site. This was supported in relation to the media used in the in vitro test system by following the 31P NMR spectra of the n-ODN-1 and S-ODN-1 compounds as a function of time.

[11] = Stability in human serum; assay type: in vitro ADME; details: 31P NMR
[12] = test system: HL60 cells; assay: DNA synthesis in HL60 cells (3H-thymidine incorporation); assay type: cell-based; details: FIG. 4, 50 uM, day 1
Method: To obtain the results shown in FIG. 4, nonsense or antisense S-ODNs were added at a final concentration of 50 uM on day 0 to cells seeded at 3×10^5/ml. DNA synthesis was determined on day 1 by incubating cells with 1 uCi 3H-thymidine for 4 hours, after which time 10% trichloroacetic acid was added and acid precipitatable radioactivity was trapped on Whatman glass fiber filters. The filters were subjected to liquid scintillation counting to determine levels of radioactivity.

[13] = test system: HL60 cells; assay: Inhibition of HL60 cell proliferation (cell count); assay type: cell-based

In the case of Nc1ncnc2c1ncn2[C@H]1CC[C@@H](CO)O1 [2',3'-dideoxyadenosine, reference compound], the “2.7 Kb env-containing internal KPN I fragment of virus genome” value ([1]; 50 micromoles (lanes E, J), days 4 and 7) is reported as “detected only in lanes A and F” and the minimal effective concentration ([1]; Human immunodeficiency virus 1, ATH-8, Southern blot, days 4 and 7, read-out: lowest concentration significantly inhibiting de novo synthesis of viral DNA) is reported as 1 µM.

In the case of Nc1ccn([C@H]2CC[C@@H](CO)O2)c(=O)n1 [2',3'-dideoxycytidine, reference compound], the “protection against the virus” value ([2]; 0.5 micromoles) is reported as “complete antiviral activity”.

With (dC)n n = 14 [S-dC14] the induction of gamma-interferon [3] was “No induction of gamma-interferon”, the “protection against the virus” value ([2]; 5 micromoles) was “only a moderate effect” and the “anti-HIV activity / protection against cytopathic effect” value (“anti-HIV activity / protection” for short) [2] was “the most potent antiviral compound among those tested”. The “anti-HIV activity / protection” value ([2]; listed as 14-mer oligo-dC) was “substantial protection against HIV cytopathic effect”.

With (dC)n n = 28 [S-dC28] the “gag protein positivity” value [4] was “failed to reduce gag protein positivity; also recorded: did not inhibit gag protein positivity”, the “protection against the virus” value ([2]; 0.5 micromoles) was “complete protection against the virus; also recorded: complete antiviral activity” and the “inhibition of viral replication and protection of ATH8 cells” value ([2]; 3 micromoles) was 100%. For the same molecule, the “anti-HIV activity / protection” value [2] was “the most consistent and durable antiviral effects; also recorded: one of the most potent analogs tested”, the “therapeutic index (ratio of cytotoxic to effective concentration)” value ([2]; in vitro) was “comparable in vitro index to those of dideoxycytidine and dideoxyadenosine” and the “solubility in 1M NaCl” value [5] was “extremely insoluble in 1M NaCl”. For the same molecule, the “Ratio t1/2 PSoligo/t1/2 POoligo” value ([6]; oligo-dC, ten-fold higher S1 concentration) was 2, the “changes in T4, HLA-DR, T8, T3, or Tac antigen” value [7] was “no detectable changes” and the “inhibition of HIV binding to T4 molecule” value [8] was “No inhibition”. The “Ratio t1/2 PSoligo/t1/2 POoligo” value [9] was 15, the “2.7 Kb env-containing internal KPN I fragment of virus genome” value ([1]; 1, 5 and 7 micromoles S-dC28 (lanes B-D, G-I), days 4 and 7) was “detected only in lanes A and F” and the “lowest concentration with complete inhibition of de novo synthesis of HIV DNA” value ([1]; Southern blot) was 1 µmol. The “lowest concentration significantly inhibiting de novo synthesis of viral DNA” value ([1]; Southern blot, days 4 and 7) was 1 µM.

In the case of “d-(Gs Gs As Gs As Cs As Gs Cs Gs As Cs Gs A) [S-ODN-2]”, the “anti-HIV activity / protection” value [2] is reported as “protected against HIV”.

In the case of “d-(Ts Cs Gs Ts Cs Gs Cs Ts Gs Ts Cs Ts Cs C) [S-ODN-1]”, the “anti-HIV activity / protection” value [2] is reported as “substantial activity against HIV; also recorded: protected against HIV”, the phosphorothioate bonds intact ([10]; 10 days) is reported as “still intact after 10 days” and the degradation ([10]; a week) is reported as “no significant degradation even after a week”. For the same molecule, the “decomposition based on the total signal intensity” value ([10]; after 10 days) was “less than 5%”.

With “dAACGTTGAGGGGCAT [O-myc-1, reference compound]” the “half-life in 50% human serum” value [11] was “two to three”.

With dAACGTTGAGGGGCAT [S-myc-1] the “inhibition of cell proliferation (3H-thymidine incorporation)” value [12] was “significant inhibition of cell proliferation”, the “Ratio t1/2 PSoligo/t1/2 POoligo” value ([6]; ODN-4 and myc-1) was 9 and the “effect on cell proliferation” value ([13]; 0.1 micro M, FIG. 3) was “effective”. For the same molecule, the “concentration relative to that required for the normal oligomer” value ([13]; HL60 cells) was “less than 1%”, the “inhibition of cell proliferation (cell count)” value (“inhibition … (cell count)” for short) ([13]; HL60 cells, listed as anti-sense sequence) was “significant inhibition of cell proliferation” and the “inhibition … (cell count)” value ([13]; HL60 cells, listed as phosphorothioate oligodeoxynucleotide analogs of the same anti-sense sequence) was “inhibit proliferation of HL60 cells”. The “Ratio t1/2 PSoligo/t1/2 POoligo” value [9] was 4.

In the case of “nonsense S-ODN: 5'-CTG AAG TGG CAT GAG; non-sense, same composition as anti-sense but in random sequence (dC*dT*dG*dA*dA*dG*dT*dG*dG*dC*dA*dT*dG*dA*dG) [reference compound]”, the “inhibition … (cell count)” value ([13]; HL60 cells) is reported as “not all nonsense S-ODN concentrations affected cell proliferation” and the “inhibition … (cell count)” value ([13]; HL60 cells, listed as non-sense sequence) is reported as “none of the controls used, namely, the non-sense sequence, has shown similar activity”.

B1: recombinant gamma-interferon: recombinant gamma-interferon (protein, UniProt P01579 24-161, looked up)
Interferon gamma: QDPYVKEAENLKKYFNAGHSDVADNGTLFLGILKNWKEESDRKIMQSQIVSFYFKLFKNFKDDQSIQKSVETIKEDMNVKFFNSNKKKRDDFEKLTNYSVTDLNVQRKAIHELIQVMAELSPAAKTGKRKRSQMLFRG
For B1, the “inhibition of cytopathic effect” value ([2]; 1000 units added directly to cultures) was “did not inhibit the cytopathic effect”.

Source: patent US5276019A, “Inhibitors for replication of retroviruses and for the expression of oncogene products” (The United States of America as represented by the …, priority 1988, dated 1994)
